We go through 25 compounds from patent US20220281841A1, “ETHYNYLHETEROCYCLES AS RHO-ASSOCIATED COILED-COIL KINASE (ROCK) INHIBITORS” (Angion Biomedica Corp., priority 2019, published 2022).

One assay deals with T1, ROCK2 (Homo sapiens, UniProt O75116).
T1 construct: purchased DiscoverX (KINOMEscan KdELECT service); host or cells: E. coli BL21-derived (T7 phage) or HEK-293
The experiment in a line: ROCK2 kinase binding affinity, DiscoverX KINOMEscan KdELECT. Particulars: for ROCK 2 Selectivity: ROCK2 over ROCK1, from Kd values, N/C = not calculated; for Kd: equilibrium dissociation constant, 11-point 3-fold dilution series, read-out: Kd (μM) ROCK2. The method, then:
(§1) 1. ROCK1 and ROCK2 kinase assays: The ROCK1 and ROCK2 kinase binding affinities of compounds in this invention were determined by DiscoverX's KINOMEscan™ KdELECT technology (https://www.discoverx.com/kinomescan-elect-kinase-screening-and-profiling-services): Kinase-tagged T7 phage strains were prepared in an E. coli host derived from the BL21 strain. E. coli were grown to log-phase and infected with T7 phage and incubated with shaking at 32° C. until lysis. The lysates were centrifuged and filtered to remove cell debris. The remaining kinases were produced in HEK-293 cells and subsequently tagged with DNA for qPCR detection. Streptavidin-coated magnetic beads were treated with biotinylated small molecule ligands for 30 minutes at room temperature to generate affinity resins for kinase assays. The liganded beads were blocked with excess biotin and washed with blocking buffer (SeaBlock (Pierce), 1% BSA, 0.05% Tween 20, 1 mM DTT) to remove unbound ligand and to reduce nonspecific binding. […] Test compounds were prepared as 111X stocks in 100% DMSO. Kds were determined using an 11-point 3-fold compound dilution series with three DMSO control points. […] The compounds were then diluted directly into the assays such that the final concentration of DMSO was 0.9%. All reactions performed in polypropylene 384-well plate. Each was a final volume of 0.02 ml. […] The kinase concentration in the eluates was measured by qPCR.

In another assay the target is T2, ROCK1 (Homo sapiens, UniProt Q13464).
T2 construct: purchased DiscoverX (KINOMEscan KdELECT service); host or cells: E. coli BL21-derived (T7 phage) or HEK-293
T2 sequence (Q13464 whole entry): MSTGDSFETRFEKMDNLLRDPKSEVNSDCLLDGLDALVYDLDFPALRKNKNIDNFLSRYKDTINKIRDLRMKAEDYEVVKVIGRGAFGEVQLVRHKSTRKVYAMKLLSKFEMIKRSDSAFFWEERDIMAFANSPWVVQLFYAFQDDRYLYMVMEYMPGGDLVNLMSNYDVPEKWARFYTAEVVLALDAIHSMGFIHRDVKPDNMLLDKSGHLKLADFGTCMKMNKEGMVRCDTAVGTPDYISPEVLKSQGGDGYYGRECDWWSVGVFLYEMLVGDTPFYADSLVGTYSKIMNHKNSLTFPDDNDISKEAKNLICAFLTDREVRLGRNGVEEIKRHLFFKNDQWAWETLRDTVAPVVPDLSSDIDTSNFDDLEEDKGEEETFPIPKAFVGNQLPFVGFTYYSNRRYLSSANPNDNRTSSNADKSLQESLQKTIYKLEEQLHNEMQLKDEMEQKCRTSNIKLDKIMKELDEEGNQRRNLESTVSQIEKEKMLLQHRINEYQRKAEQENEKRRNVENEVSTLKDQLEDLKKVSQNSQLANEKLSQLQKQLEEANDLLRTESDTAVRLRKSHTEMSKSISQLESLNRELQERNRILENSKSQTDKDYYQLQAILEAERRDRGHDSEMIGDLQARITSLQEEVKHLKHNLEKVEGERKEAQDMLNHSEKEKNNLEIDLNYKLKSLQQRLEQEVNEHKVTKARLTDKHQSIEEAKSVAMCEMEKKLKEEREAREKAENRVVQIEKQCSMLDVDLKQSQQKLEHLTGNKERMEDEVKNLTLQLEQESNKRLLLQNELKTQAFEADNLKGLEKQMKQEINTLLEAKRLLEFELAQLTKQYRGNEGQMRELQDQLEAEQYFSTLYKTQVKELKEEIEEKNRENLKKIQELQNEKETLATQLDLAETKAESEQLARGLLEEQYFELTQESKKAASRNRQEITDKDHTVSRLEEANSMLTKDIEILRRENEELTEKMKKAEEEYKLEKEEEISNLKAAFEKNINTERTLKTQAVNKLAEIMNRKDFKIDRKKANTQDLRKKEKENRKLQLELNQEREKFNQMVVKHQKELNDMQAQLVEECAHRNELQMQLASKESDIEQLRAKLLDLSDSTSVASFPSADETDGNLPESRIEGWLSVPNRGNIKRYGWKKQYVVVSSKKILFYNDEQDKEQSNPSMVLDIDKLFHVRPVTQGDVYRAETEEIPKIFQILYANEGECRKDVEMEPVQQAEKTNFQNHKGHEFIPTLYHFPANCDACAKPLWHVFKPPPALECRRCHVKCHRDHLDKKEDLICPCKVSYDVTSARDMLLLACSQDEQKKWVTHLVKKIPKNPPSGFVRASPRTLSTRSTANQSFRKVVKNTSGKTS
The experiment in a line: ROCK1 kinase binding affinity, DiscoverX KINOMEscan KdELECT. As to conditions: equilibrium dissociation constant, 11-point 3-fold dilution series. The method, then:
as §1

pKd: −log10 of the molar value. Structures can show the parent of a compound that is named as a salt. Where two headings read alike, the source gives them in different places.

T1 sequence (O75116 whole entry): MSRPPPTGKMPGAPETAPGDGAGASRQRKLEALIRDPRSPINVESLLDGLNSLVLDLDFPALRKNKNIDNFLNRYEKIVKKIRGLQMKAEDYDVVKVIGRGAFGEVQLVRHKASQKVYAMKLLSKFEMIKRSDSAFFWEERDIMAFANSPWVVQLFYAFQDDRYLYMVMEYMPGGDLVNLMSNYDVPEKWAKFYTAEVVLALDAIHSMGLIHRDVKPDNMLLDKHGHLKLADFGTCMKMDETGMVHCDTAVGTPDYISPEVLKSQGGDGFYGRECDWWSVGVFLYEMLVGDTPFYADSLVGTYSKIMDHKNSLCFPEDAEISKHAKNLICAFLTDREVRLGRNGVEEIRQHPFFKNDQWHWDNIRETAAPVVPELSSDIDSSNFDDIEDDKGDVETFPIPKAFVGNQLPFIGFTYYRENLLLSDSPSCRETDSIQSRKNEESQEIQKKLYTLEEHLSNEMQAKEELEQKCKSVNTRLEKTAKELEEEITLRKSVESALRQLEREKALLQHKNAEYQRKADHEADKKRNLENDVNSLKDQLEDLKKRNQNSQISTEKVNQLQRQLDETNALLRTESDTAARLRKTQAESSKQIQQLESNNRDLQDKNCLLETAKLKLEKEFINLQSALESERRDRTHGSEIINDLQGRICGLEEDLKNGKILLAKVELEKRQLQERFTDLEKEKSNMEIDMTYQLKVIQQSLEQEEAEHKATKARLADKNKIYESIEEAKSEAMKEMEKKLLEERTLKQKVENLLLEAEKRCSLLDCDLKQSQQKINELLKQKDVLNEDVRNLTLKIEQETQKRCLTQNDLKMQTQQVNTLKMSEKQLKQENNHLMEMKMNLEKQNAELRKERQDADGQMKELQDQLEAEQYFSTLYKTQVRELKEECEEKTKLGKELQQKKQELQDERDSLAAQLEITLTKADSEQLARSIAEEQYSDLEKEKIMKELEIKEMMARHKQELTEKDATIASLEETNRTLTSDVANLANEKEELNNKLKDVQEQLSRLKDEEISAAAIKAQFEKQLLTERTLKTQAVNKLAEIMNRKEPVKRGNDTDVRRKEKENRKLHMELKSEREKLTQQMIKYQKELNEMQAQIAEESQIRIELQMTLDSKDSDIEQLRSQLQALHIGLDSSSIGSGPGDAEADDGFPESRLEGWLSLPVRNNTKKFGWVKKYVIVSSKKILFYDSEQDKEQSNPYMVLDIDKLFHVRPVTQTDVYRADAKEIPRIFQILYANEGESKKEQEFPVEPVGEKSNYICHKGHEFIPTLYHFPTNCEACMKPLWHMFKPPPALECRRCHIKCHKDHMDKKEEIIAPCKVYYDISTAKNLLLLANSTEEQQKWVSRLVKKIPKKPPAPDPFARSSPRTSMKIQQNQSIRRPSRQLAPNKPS

By Kd is commonly meant the concentration at which binding is half-saturated. For the compound `Fc1ccc(N2CCN(c3nccc(-c4nccc(C#Cc5ccc6[nH]ncc6c5)n4)n3)CC2)cc1` [Ex. 53, 5-((2′-(4-(4-Fluorophenyl)piperazin-1-yl)-[2,4′-bipyrimidin]-4-yl)ethynyl)-1H-indazole], the “ROCK 2 Selectivity” value on ROCK2 was 58.8. Moreover, the Kd at ROCK2 was 0.08 µM; on ROCK1, 4.7 µM.

As to `CN1CCN(c2ccc3c(c2)CN(c2nccc(-c4cccc(C#Cc5ccc6[nH]ncc6c5)n4)n2)C3)CC1` [Ex. 23, 5-((6-(2-(5-(4-Methylpiperazin-1-yl)isoindolin-2-yl)pyrimidin-4-yl)pyridin-2-yl)ethynyl)-1H-indazole], at ROCK2, the “ROCK 2 Selectivity” value is recorded as more than 45 and the Kd worked out at 0.66 µM. Further, the Kd on ROCK1 is more than 30 µM.

Turning to `Fc1ccc(C2CCN(c3nccc(-c4nccc(C#Cc5ccc6[nH]ncc6c5)n4)n3)CC2)cc1` [Ex. 56, 5-((2′-(4-(4-Fluorophenyl)piperidin-1-yl)-[2,4′-bipyrimidin]-4-yl)ethynyl)-1H-indazole], on ROCK2, the “ROCK 2 Selectivity” value is 35.6 and the Kd came out at 0.73 µM. Also, on ROCK1, binding was characterised by a dissociation constant (Kd) of 26 µM.

`O=C(O)c1ccc(C2CN(c3nccc(-c4nccc(C#Cc5ccc6[nH]ncc6c5)n4)n3)C2)cc1` [Ex. 51, 4-(1-(4-((1H-Indazol-5-yl)ethynyl)-[2,4′-bipyrimidin]-2′-yl)azetidin-3-yl)benzoic acid]: on ROCK2, the “ROCK 2 Selectivity” value is reported as 73 and the Kd was 0.15 µM. For the same compound, on ROCK1, the Kd turned out to be 11 µM.

In the case of `Fc1cc(C#Cc2ccc3[nH]ncc3c2)cc(-c2ccnc(N3Cc4ccc(F)cc4C3)n2)c1` [Ex. 25, 5-((3-Fluoro-5-(2-(5-fluoroisoindolin-2-yl)pyrimidin-4-yl)phenyl)ethynyl)-1H-indazole], the dissociation constant Kd at ROCK2 and at ROCK1 was more than 30 µM each time.

As for `CN(C)CCOc1ccc2c(c1)CN(c1nccc(-c3cc(F)cc(C#Cc4ccc5[nH]ncc5c4)c3)n1)C2` [Ex. 28, 2-((2-(4-(3-((1H-Indazol-5-yl)ethynyl)-5-fluorophenyl)pyrimidin-2-yl)isoindolin-5-yl)oxy)-N,N-dimethylethanamine], the Kd at ROCK2 and at ROCK1 was more than 30 µM each time.

Turning to `CC1CN(c2ccc3c(c2)CN(c2nccc(-c4nccc(C#Cc5ccc6[nH]ncc6c5)n4)n2)C3)CCO1` (stereo not drawn) [Ex. 41, 4-(2-(4-((1H-Indazol-5-yl)ethynyl)-[2,4′-bipyrimidin]-2′-yl)isoindolin-5-yl)-2-methylmorpholine], the “ROCK 2 Selectivity” value on ROCK2 is 45.8. Moreover, the Kd came to 0.024 µM at ROCK2 and 1.1 µM at ROCK1.

Consider `Clc1cc2c(cn1)CN(c1nccc(-c3nccc(C#Cc4ccc5[nH]ncc5c4)n3)n1)C2` [Ex. 17, 5-((2′-(6-Chloro-1,3-dihydro-2H-pyrrolo[3,4-c]pyridin-2-yl)-[2,4′-bipyrimidin]-4-yl)ethynyl)-1H-indazole], for which, at ROCK2, the “ROCK 2 Selectivity” value is more than 122 and the Kd turned out to be 0.049 µM. This compound also registered a Kd at ROCK1 of more than 6 µM.

As for `COCCOc1cc2c(cn1)CN(c1nccc(-c3nccc(C#Cc4ccc5[nH]ncc5c4)n3)n1)C2` [Ex. 37, 5-((2′-(6-(2-Methoxyethoxy)-1,3-dihydro-2H-pyrrolo[3,4-c]pyridin-2-yl)-[2,4′-bipyrimidin]-4-yl)ethynyl)-1H-indazole], on ROCK2, the “ROCK 2 Selectivity” value is 51.8 and the equilibrium dissociation constant (Kd) was found to be 0.11 µM. The Kd on ROCK1 is 5.7 µM.

`Fc1cc(C#Cc2ccc3[nH]ncc3c2)cc(-c2ccnc(N3Cc4ccc(Br)cc4C3)n2)c1` [Ex. 27, 5-((3-(2-(5-Bromoisoindolin-2-yl)pyrimidin-4-yl)-5-fluorophenyl)ethynyl)-1H-indazole]: the Kd on ROCK2 and on ROCK1 was more than 30 µM each time.

For the compound `COCCOc1ccc2c(c1)CN(c1nccc(-c3nccc(C#Cc4ccc5[nH]ncc5c4)n3)n1)C2` [Ex. 47, 5-((2′-(5-(2-Methoxyethoxy)isoindolin-2-yl)-[2,4′-bipyrimidin]-4-yl)ethynyl)-1H-indazole], on ROCK2, the “ROCK 2 Selectivity” value is listed as 51.6 and the Kd came to 0.0031 µM. This compound yielded a Kd on ROCK1 of 0.16 µM.

`N#Cc1ccc(C2CN(c3nccc(-c4nccc(C#Cc5ccc6[nH]ncc6c5)n4)n3)C2)cc1` [Ex. 50, 4-(1-(4-((1H-Indazol-5-yl)ethynyl)-[2,4′-bipyrimidin]-2′-yl)azetidin-3-yl)benzonitrile trifluoroacetate]: the “ROCK 2 Selectivity” value at ROCK2 is listed as 45. The Kd at ROCK2 was 0.12 µM; at ROCK1, 5.4 µM.

Broadly, the pKd is the Kd on a negative log10 scale, so that one unit is a factor of ten. A low value points to a high Kd. `COc1ccc2c(c1)CN(c1nccc(-c3cccc(C#Cc4cc(F)c5[nH]ncc5c4)n3)n1)C2` [Ex. 19, 7-Fluoro-5-((6-(2-(5-methoxyisoindolin-2-yl)pyrimidin-4-yl)pyridin-2-yl)ethynyl)-1H-indazole]: on ROCK2, the pKd was 5.55 and the “ROCK 2 Selectivity” value was more than 10.7. Further, on ROCK1, the Kd was more than 30 µM.

Consider `C(#Cc1ccnc(-c2ccnc(N3Cc4c[nH]nc4C3)n2)n1)c1ccc2[nH]ncc2c1` [Ex. 35, 5-((2′-(2,6-Dihydropyrrolo[3,4-c]pyrazol-5(4H)-yl)-[2,4′-bipyrimidin]-4-yl)ethynyl)-1H-indazole], for which, at ROCK2, the “ROCK 2 Selectivity” value is recorded as more than 417 and the equilibrium dissociation constant (Kd) is 0.072 µM. The compound further came in with a Kd on ROCK1 of more than 30 µM.

Regarding `FC(F)(F)c1ccc2c(c1)CN(c1nccc(-c3nccc(C#Cc4ccc5[nH]ncc5c4)n3)n1)C2` [Ex. 45, 5-((2′-(5-(Trifluoromethyl)isoindolin-2-yl)-[2,4′-bipyrimidin]-4-yl)ethynyl)-1H-indazole trifluoroacetate], the “ROCK 2 Selectivity” value on ROCK2 is 90.9. In addition, the values for the Kd at ROCK2 and on ROCK1 were 0.0011 µM and 0.1 µM, respectively.

In the case of `CN1CCN(c2ccc3c(c2)CN(c2nccc(-c4nccc(C#Cc5ccc6[nH]ncc6c5)n4)n2)C3)CC1` [Ex. 40, 5-((2′-(5-(4-Methylpiperazin-1-yl)isoindolin-2-yl)-[2,4′-bipyrimidin]-4-yl)ethynyl)-1H-indazole], on ROCK2, the “ROCK 2 Selectivity” value was 144 and the Kd came to 0.083 µM. Moreover, the affinity on ROCK1, expressed as Kd, was 12 µM.

For `COc1ccc2c(c1)CN(c1nccc(-c3nccc(C#Cc4ccc5[nH]nc(F)c5c4)n3)n1)C2` [Ex. 5, 3-Fluoro-5-((2′-(5-methoxyisoindolin-2-yl)-[2,4′-bipyrimidin]-4-yl)ethynyl)-1H-indazole], at ROCK2, the “ROCK 2 Selectivity” value is reported as more than 1500 and the dissociation constant Kd was found to be 0.02 µM. At ROCK1, this compound returned a Kd of more than 30 µM.

With `Fc1ccc2c(c1)CN(c1nccc(-c3nccc(C#Cc4ccc5[nH]ncc5c4)n3)n1)C2` [Ex. 13, 5-((2′-(5-Fluoroisoindolin-2-yl)-[2,4′-bipyrimidin]-4-yl)ethynyl)-1H-indazole], at ROCK2, the “ROCK 2 Selectivity” value was 1164 and the Kd was 0.0079 µM. The compound further returned a Kd on ROCK1 of 9.2 µM.

Consider `C(#Cc1ccnc(-c2ccnc(N3Cc4ncsc4C3)n2)n1)c1ccc2[nH]ncc2c1` [Ex. 65, 5-(4-((1H-Indazol-5-yl)ethynyl)-[2,4′-bipyrimidin]-2′-yl)-5,6-dihydro-4H-pyrrolo[3,4-d]thiazole], for which, on ROCK2, the “ROCK 2 Selectivity” value was 142 and the Kd is 0.024 µM. The same compound came in with a Kd at ROCK1 of 3.4 µM.

Take `CN1CCN(c2ccc3c(c2)CN(c2nccc(-c4cc(F)cc(C#Cc5ccc6[nH]ncc6c5)c4)n2)C3)CC1` [Ex. 29, 5-((3-Fluoro-5-(2-(5-(4-methylpiperazin-1-yl)isoindolin-2-yl)pyrimidin-4-yl)phenyl)ethynyl)-1H-indazole]: the Kd at ROCK2 and at ROCK1 was more than 30 µM throughout.

On to `Clc1ccc(N2CCN(c3nccc(-c4nccc(C#Cc5ccc6[nH]ncc6c5)n4)n3)CC2)cc1` [Ex. 61, 5-((2′-(4-(4-Chlorophenyl)piperazin-1-yl)-[2,4′-bipyrimidin]-4-yl)ethynyl)-1H-indazole], for which, on ROCK2, the “ROCK 2 Selectivity” value is 44.9 and the Kd turned out to be 0.49 µM. Also, the Kd at ROCK1 amounted to 22 µM.

Take `COc1ccc2c(c1)CN(c1nccc(-c3nccc(C#Cc4ccc5c(N)nccc5c4)n3)n1)C2` [Ex. 4, 6-((2′-(5-Methoxyisoindolin-2-yl)-[2,4′-bipyrimidin]-4-yl)ethynyl)isoquinolin-1-amine]: at ROCK2, the “ROCK 2 Selectivity” value is listed as more than 3.66 and the Kd is 8.2 µM. At ROCK1, this compound returned a Kd of more than 30 µM.

For `COc1ccc2c(c1)CN(c1nccc(-c3cc(F)cc(C#Cc4ccc5[nH]ncc5c4)c3)n1)C2` [Ex. 24, 5-((3-Fluoro-5-(2-(5-methoxyisoindolin-2-yl)pyrimidin-4-yl)phenyl)ethynyl)-1H-indazole], the Kd on ROCK2 and on ROCK1 was more than 30 µM each time.

As to `Fc1cc(C#Cc2ccc3[nH]ncc3c2)cc(-c2ccnc(N3Cc4ccc(Cl)cc4C3)n2)c1` [Ex. 26, 5-((3-(2-(5-Chloroisoindolin-2-yl)pyrimidin-4-yl)-5-fluorophenyl)ethynyl)-1H-indazole], the “ROCK 2 Selectivity” value on ROCK2 is given as more than 6.67. Besides, the Kd at ROCK2 was 4.5 µM; on ROCK1 it was more than 30 µM.

`COc1ccc2c(c1)CN(c1nccc(-c3cccc(C#Cc4ccc5[nH]ncc5c4)n3)n1)C2` [Ex. 18, 5-((6-(2-(5-Methoxyisoindolin-2-yl)pyrimidin-4-yl)pyridin-2-yl)ethynyl)-1H-indazole]: the Kd is 0.12 µM at ROCK2 and 25 µM on ROCK1.
